# From PMC11864979, “First-in-class ultralong-target-residence-time p38α inhibitors as a mitosis-targeted therapy for colorectal cancer” (Nature Cancer, 2025)
# Where two headings read alike, the source gives them in different places.
# Columns and labels:
# Experiment in all cases: selectivity profiling in a panel of 340 wild-type kinases (Reaction Biology Europe)
# Type in all cases: binding
# [1] = target: T1, 340 wild-type kinases (Homo sapiens, UniProt P24941)
# T1 construct: purchased Reaction Biology Europe
# [2] = target: T2, 340 wild-type kinases (Homo sapiens, UniProt P43405)
# T2 construct: purchased Reaction Biology Europe
# [3] = target: T3, 340 wild-type kinases (Homo sapiens, UniProt P53355)
# T3 construct: purchased Reaction Biology Europe
# T3 sequence (P53355 whole entry): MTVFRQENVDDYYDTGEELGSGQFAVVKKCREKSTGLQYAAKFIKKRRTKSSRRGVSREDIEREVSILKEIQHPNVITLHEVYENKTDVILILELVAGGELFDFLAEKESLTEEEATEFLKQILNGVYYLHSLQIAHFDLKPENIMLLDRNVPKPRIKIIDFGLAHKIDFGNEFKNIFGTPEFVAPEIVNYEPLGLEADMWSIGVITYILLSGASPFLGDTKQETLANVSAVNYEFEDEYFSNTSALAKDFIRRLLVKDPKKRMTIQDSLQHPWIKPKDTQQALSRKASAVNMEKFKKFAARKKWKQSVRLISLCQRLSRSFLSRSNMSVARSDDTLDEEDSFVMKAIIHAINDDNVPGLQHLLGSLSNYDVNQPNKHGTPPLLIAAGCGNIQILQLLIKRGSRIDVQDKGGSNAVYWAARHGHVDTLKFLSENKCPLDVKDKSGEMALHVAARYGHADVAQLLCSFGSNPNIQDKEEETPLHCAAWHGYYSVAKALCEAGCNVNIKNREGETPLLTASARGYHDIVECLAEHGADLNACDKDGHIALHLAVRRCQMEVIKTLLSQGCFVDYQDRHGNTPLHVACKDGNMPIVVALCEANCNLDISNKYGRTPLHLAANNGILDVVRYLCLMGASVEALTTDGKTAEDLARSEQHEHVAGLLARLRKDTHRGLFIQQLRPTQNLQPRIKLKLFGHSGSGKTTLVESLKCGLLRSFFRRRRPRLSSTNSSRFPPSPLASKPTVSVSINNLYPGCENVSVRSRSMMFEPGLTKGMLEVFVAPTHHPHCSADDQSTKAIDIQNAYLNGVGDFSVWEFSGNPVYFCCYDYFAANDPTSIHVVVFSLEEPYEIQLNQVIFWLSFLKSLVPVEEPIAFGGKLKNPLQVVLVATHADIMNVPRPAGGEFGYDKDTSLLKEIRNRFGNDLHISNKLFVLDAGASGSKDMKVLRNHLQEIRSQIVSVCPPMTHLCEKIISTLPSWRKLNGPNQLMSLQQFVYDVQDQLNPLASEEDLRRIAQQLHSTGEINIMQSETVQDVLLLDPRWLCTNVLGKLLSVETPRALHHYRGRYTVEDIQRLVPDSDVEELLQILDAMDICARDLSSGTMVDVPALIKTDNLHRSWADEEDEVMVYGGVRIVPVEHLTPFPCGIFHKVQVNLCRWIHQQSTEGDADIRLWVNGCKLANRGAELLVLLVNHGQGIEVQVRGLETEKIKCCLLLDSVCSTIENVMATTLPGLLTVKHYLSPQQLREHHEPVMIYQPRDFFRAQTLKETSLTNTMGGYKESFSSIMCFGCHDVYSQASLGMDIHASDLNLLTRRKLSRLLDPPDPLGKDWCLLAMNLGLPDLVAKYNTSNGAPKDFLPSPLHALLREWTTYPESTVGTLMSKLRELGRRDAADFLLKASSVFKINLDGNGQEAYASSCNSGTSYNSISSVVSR
# [4] = target: T4, 340 wild-type kinases (Homo sapiens, UniProt Q8TDC3)
# T4 construct: purchased Reaction Biology Europe
# T4 sequence (Q8TDC3 1-778): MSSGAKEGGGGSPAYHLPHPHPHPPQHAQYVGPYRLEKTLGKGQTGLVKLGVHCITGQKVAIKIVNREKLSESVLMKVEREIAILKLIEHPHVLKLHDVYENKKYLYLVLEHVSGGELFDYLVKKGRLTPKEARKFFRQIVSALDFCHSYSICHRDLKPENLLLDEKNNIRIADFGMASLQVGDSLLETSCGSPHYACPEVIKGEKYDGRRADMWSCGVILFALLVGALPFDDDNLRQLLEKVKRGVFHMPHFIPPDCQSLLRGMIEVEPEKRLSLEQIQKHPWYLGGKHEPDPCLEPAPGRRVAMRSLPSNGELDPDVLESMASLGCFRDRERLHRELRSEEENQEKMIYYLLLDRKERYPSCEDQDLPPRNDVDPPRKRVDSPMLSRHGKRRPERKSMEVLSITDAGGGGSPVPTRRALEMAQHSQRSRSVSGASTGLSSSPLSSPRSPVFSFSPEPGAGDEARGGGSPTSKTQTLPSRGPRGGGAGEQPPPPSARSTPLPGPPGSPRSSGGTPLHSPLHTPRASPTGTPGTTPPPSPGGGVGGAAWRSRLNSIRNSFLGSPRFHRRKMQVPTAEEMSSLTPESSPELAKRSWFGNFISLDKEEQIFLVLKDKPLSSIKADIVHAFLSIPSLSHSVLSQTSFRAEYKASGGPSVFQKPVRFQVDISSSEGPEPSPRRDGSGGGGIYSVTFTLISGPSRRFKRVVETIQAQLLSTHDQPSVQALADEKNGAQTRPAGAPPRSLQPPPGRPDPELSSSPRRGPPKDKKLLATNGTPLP
# [5] = target: T5, 340 wild-type kinases (Homo sapiens, UniProt Q9BZL6)
# T5 construct: purchased Reaction Biology Europe
# T5 sequence (Q9BZL6 1-878): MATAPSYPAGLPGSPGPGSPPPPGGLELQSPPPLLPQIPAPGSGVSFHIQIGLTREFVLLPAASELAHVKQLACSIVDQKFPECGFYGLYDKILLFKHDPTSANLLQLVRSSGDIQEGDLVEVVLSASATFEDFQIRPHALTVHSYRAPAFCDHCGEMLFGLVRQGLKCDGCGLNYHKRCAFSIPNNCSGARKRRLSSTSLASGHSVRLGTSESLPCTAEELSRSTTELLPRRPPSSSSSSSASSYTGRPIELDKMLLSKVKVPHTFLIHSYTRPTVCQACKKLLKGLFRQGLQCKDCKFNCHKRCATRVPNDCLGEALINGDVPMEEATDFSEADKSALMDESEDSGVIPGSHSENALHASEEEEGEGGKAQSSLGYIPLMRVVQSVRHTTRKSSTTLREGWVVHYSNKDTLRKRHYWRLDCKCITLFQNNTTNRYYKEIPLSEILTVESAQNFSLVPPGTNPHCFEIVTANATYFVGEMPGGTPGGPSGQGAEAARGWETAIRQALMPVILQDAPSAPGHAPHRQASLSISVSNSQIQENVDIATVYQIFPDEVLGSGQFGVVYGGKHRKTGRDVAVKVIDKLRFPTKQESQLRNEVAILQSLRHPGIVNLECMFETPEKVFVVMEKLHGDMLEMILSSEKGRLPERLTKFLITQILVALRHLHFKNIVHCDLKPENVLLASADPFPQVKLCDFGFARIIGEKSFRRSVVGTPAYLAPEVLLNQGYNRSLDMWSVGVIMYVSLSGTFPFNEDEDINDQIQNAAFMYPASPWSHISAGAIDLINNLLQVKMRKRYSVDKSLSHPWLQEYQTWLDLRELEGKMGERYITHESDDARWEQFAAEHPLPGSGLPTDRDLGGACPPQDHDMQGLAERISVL
# [6] = tested on: 340 wild-type kinases; conditions: for residual activity: RAF1 YDYD
smiles,measurement,setting,value
CNC(=O)c1ccc2c(c1)C(=O)c1ccc(Nc3ccc(F)c(NC(=O)C4CC4)c3)cc1CC2 [Compound 2015],remaining activity at 0.2 µM,"[1]; 0.2 µM 2015, read-out: CDK2/CycA2 residual activity",92.5%
same,remaining activity at 0.2 µM,"[1]; 0.2 µM 2015, read-out: CDK2/CycD1 residual activity",90.3%
same,remaining activity at 0.2 µM,"[1]; 0.2 µM 2015, read-out: CDK2/CycE1 residual activity",121%
same,remaining activity at 1 µM,"[1]; 1 µM 2015, read-out: CDK2/CycA2 residual activity",87.2%
same,remaining activity at 1 µM,"[1]; 1 µM 2015, read-out: CDK2/CycD1 residual activity",96.5%
same,remaining activity at 1 µM,"[1]; 1 µM 2015, read-out: CDK2/CycE1 residual activity",109%
same,remaining activity at 0.2 µM,"[1]; CDK2/CycA2, 0.2 µM, read-out: residual activity",92.5%
same,remaining activity at 1 µM,"[1]; CDK2/CycA2, 1 µM, read-out: residual activity",87.2%
same,remaining activity at 0.2 µM,"[1]; CDK2/CycD1, 0.2 µM, read-out: residual activity",90.3%
same,remaining activity at 1 µM,"[1]; CDK2/CycD1, 1 µM, read-out: residual activity",96.5%
same,remaining activity at 0.2 µM,"[1]; CDK2/CycE1, 0.2 µM, read-out: residual activity",121%
same,remaining activity at 1 µM,"[1]; CDK2/CycE1, 1 µM, read-out: residual activity",109%
same,remaining activity at 0.2 µM,"[2]; 0.2 µM 2015, read-out: SYK residual activity",95.8%
same,remaining activity at 1 µM,"[2]; 1 µM 2015, read-out: SYK residual activity",85.6%
same,remaining activity at 0.2 µM,"[2]; SYK, 0.2 µM, read-out: residual activity",95.8%
same,remaining activity at 1 µM,"[2]; SYK, 1 µM, read-out: residual activity",85.6%
same,remaining activity at 0.2 µM,"[3]; 0.2 µM 2015, read-out: DAPK1 residual activity",128%
same,remaining activity at 1 µM,"[3]; 1 µM 2015, read-out: DAPK1 residual activity",135%
same,remaining activity at 0.2 µM,"[3]; DAPK1, 0.2 µM, read-out: residual activity",128%
same,remaining activity at 1 µM,"[3]; DAPK1, 1 µM, read-out: residual activity",135%
same,remaining activity at 0.2 µM,"[4]; 0.2 µM 2015, read-out: BRSK1 residual activity",99.5%
same,remaining activity at 1 µM,"[4]; 1 µM 2015, read-out: BRSK1 residual activity",90.5%
same,remaining activity at 0.2 µM,"[4]; BRSK1, 0.2 µM, read-out: residual activity",99.5%
same,remaining activity at 1 µM,"[4]; BRSK1, 1 µM, read-out: residual activity",90.5%
same,remaining activity at 0.2 µM,"[5]; 0.2 µM 2015, read-out: PRKD2 residual activity",66.4%
same,remaining activity at 1 µM,"[5]; 1 µM 2015, read-out: PRKD2 residual activity",91.3%
same,remaining activity at 0.2 µM,"[5]; PRKD2, 0.2 µM, read-out: residual activity",66.4%
same,remaining activity at 1 µM,"[5]; PRKD2, 1 µM, read-out: residual activity",91.3%
same,PKCbeta2 residual activity,[6]; 0.2 µM 2015,102.668%
same,PKCbeta2 residual activity,[6]; 1 µM 2015,108.52%
same,residual activity,[6]; 0.2 µM,80.31%
same,residual activity,[6]; 1 µM,88.78%
same,effect on p38α and p38β (in words),"[6]; panel of 340 kinases, 1 µM and 0.2 µM",specifically inhibited
